Reference: patent US20230331792A1, “NEW MULTI-FUNCTIONAL OLIGOPEPTIDES” (ENLITISA (SHANGHAI) PHARMACEUTICAL CO., LTD., priority 2019, published 2023)
Square brackets hold non-standard residues; d marks the D form. Ends that are not written are not given here. Dopa = N[C@@H](Cc1ccc(O)c(O)c1)C(=O)O; Hyp = O=C(O)[C@@H]1C[C@@H](O)CN1

Experiments:
person one = test: Pain and bleeding after an operation, patient case; type: in vivo, human
Method: Immediately after the operation, they used 0.5 mg/mL of Compound B spray (as described in Example 38 but packed into a normal spray bottle) to apply directly on the wound. The right pane in FIG. 10 was taken 1 hour after operation. […] The physician said that it would normally take a patient at least ten days to fully recover from such a procedure with standard care.

patient = test: Radiation injury in the nasal cavity, patient case; type: in vivo, human
Method: A patient was diagnosed with paranasal sinus cancer and received radiation therapy. After two weeks treatment, they had inflammation of the nose and sinuses and felt like their nose was blocked or stuffy. The mucus in the nasal cavity and paranasal sinuses became thick and dry.
The patient used a nasal spray comprising Compound B (see Example 7 above) dissolved in water at a concentration of 0.5 mg/mL and then packed into a nasal spray bottle, once every two hours during daytime.

SD rats = test: Experimental gastric ulcer model (anhydrous alcohol); type: in vivo
Method: SPF grade SD rats were used in this experiment, with 10 rats in each group. According to an evaluation method of health food for gastric ulcer issued by Chinese State Food and Drug Administration, the protective effect of Compound B on acute gastric ulcers induced by anhydrous alcohol was observed after continuous gavage for 30 days.
Omeprazole enteric-coated capsules (20 mg/capsule; Heilongjiang Norgas Pharmaceutical Co., Ltd., China) were opened and the powder was dissolved in water to make a 2 mg/mL solution. Compound B (see Example 7 above) powder was dissolved in water to make two solutions with concentrations of 0.25 mg/mL and 0.75 mg/mL. Administration volumes were […].
All drugs were administrated as shown in Table 13 by oral gavage for 30 consecutive days, once per day. The rats had free access to water. On the 30th day, rats were fasted for 24 hours after the last drug administration. On the 31st day, 1.0 mL/rat of absolute ethanol was given by gavage to each rat in all of the experimental groups except the control group.
1 hour later, all of the rats were sacrificed and dissected to expose the intact stomach, followed by ligation of the pylorus. 10% formaldehyde solution was administered into the stomach by perfusion and fixed for 20 minutes. The stomach was dissociated after fixation and cut open along the greater curvature. The stomach contents were washed off the lining with saline to reveal the gastric mucosa.
The length and width of gastric mucosal bleeding were measured with a Vernier calliper under a stereo microscope or by the naked eye.

[1] = 0.5 mg/mL spray directly on the wound, 1 hour after operation

{[(Ala-Lys-Pro-Ser-Tyr-Hyp-Hyp-Thr-DOPA-Lys)2-Lys]2-Lys}2-Lys (AKPSY[Hyp][Hyp]T[Dopa]KKKK; also: branched lysine dendrimer {[(peptide)2-Lys]2-Lys}2-Lys) [Compound B]
bleeding of operative wound (person one; [1]): bleeding had stopped | pain of operative wound (person one; [1]): only slight pain was felt | wound recovery (person one; 0.5 mg/mL spray, one week later (standard care: at least ten days)): the wound was fully recovered | blocked or stuffy nose (patient; nasal spray 0.5 mg/mL once every two hours during daytime, three days later): nose became clear and was no longer stuffy | nasal discomfort during continued radiation therapy (patient; nasal spray 0.5 mg/mL, continuous use): nasal discomfort did not worsen | Damage score (SD rats; 0.25 mg/mL, 0.5 mg/kg oral gavage once per day for 30 days): 24 | Damage score (SD rats; 0.75 mg/mL, 1.5 mg/kg oral gavage once per day for 30 days): 18 | effect on gastric bleeding induced by alcohol (SD rats; 0.5 and 1.5 mg/kg): may reduce gastric bleeding induced by alcohol
